# Test system: RSV A2
# Experiment: Screening for RSV inhibition using Viral ToxGlo assay (cytopathic effect inhibition in HEp-2 cells)
# Format: cell-based, Respiratory Syncytial Virus (RSV)
# Details: human respiratory syncytial virus; RSV A2 in HEp-2 cells, MOI 0.5, 72h p.i., cytopathic effect inhibition relative to virus control, Viral ToxGlo luminescence
# Method: Protocol for Screening Antiviral Compounds for RSV Inhibition and Cytotoxicity Using Viral ToxGlo Assay
# HEp-2 cells were maintained in Eagle's minimum essential medium (EMEM) with Earle's BSS adjusted to contain 2 mM L-glutamine, 10% fetal bovine serum, 100 U/ml penicillin and 100 µg/ml streptomycin. For the purposes of the screening assay they were grown to 90% confluency, trypsinized and recovered. The trypsin was neutralised with cell culture media and cells were centrifuged at 150×g for 5 minutes before discarding the supernatant and resuspending cell pellet in assay media (EMEM with Earle's BSS adjusted to contain 2 mM L-glutamine, 2% fetal bovine serum and 100 U/ml penicillin and 100 µg/ml streptomycin). The cells were seeded into white clear-bottomed cell culture plates at a density of 1.5×10^4 cells/well in 50 μl and 4×10^3 cells/well in 25 μl for 96 well plates and 384 well plates respectively. For the media/background control column assay media only was added. Cell plates were placed in a humid chamber and incubated overnight at 37° C./5% CO2. After overnight incubation cells were checked for confluency and healthy appearance.
# Test articles were made up at 10× test concentration in a maximum DMSO concentration of 10% (final assay concentration maximal 1% DMSO) and added to the cell plates in volumes of […] for 96 well plates and 5 μl for 384 well plates. For cell control and virus control wells the test article solvent only was added. Virus or assay media for cytotoxicity test wells and media/cell control wells was added immediately after test articles at an MOI of […] for 96 and 384 well plates respectively. Virus suspension was prepared by thawing RSV A2 frozen stocks and diluting to the required concentration of plaque forming units in assay media on ice.
# Cell plates were further incubated inside a humid chamber for 72h p.i at 37° C./5% CO2. After the incubation period cells were observed under the microscope to check for characteristic cytopathic effect in virus control wells and healthy cells in the cell control wells. After plates were adjusted to room temperature 20/40 μl Viral ToxGlo (Promega) was added to each well of the 384/96 well cell plates. Plates were incubated at room temperature, protected from light on a plate rocker for 20 minutes before measuring the luminescence on a spectrophotometer (Biotek Synergy HTX).
row,Compound,EC50
1,"CC(C)CNC(=O)c1ccccc1Nc1ccc(C(=O)N=C2NCCN2)cc1C(C)(C)C [Compound 56, 3-tert-butyl-N-[(2E)-imidazolidin-2-ylidene]-4-({2-[(2-methylpropyl)carbamoyl]phenyl}amino)benzamide]",174 nM
2,"Cc1c(Nc2ccc(C(=O)N=C3NCCN3)cc2C2CC2)cccc1-c1ncc(Cl)[nH]1 [Compound 57, 4-{[3-(5-chloro-1H-imidazol-2-yl)-2-methylphenyl]amino}-3-cyclopropyl-N-[(2Z)-imidazolidin-2-ylidene]benzamide]",200 nM
3,"O=C(N=C1NCCN1)c1ccc(Nc2cccc(C(=O)NCCC3CCOCC3)c2)c(C2CC2)c1 [Compound 58, 3-cyclopropyl-N-[(2E)-imidazolidin-2-ylidene]-4-[(3-{[2-(oxan-4-yl)ethyl]carbamoyl}phenyl)amino]benzamide]",207 nM
4,"CC(C)NC(=O)c1cccc(Nc2ccc(C(=O)N=C3NCCN3)cc2C2CCOC2)c1 (centres unmarked) [Compound 59, N-[(2E)-imidazolidin-2-ylidene]-3-(oxolan-3-yl)-4-({3-[(propan-2-yl)carbamoyl]phenyl}amino)benzamide]",237 nM
5,"CC(C)=CCn1nnnc1-c1cccc(Nc2ccc(C(=O)N=C3NCCN3)cc2C2CC2)c1 [Compound 60, 3-cyclopropyl-N-[(2Z)-imidazolidin-2-ylidene]-4-({3-[1-(3-methylbut-2-en-1-yl)-1H-1,2,3,4-tetrazol-5-yl]phenyl}amino)benzamide]",241 nM
6,"CC(C)NC(=O)c1cccc(Nc2ccc(C(=O)/N=C3\NCC(=O)N3C)cc2C2CC2)c1 [Compound 61, 3-cyclopropyl-N-[(2E)-1-methyl-5-oxoimidazolidin-2-ylidene]-4-({3-[(propan-2-yl)carbamoyl]phenyl}amino)benzamide]",516 nM
7,"CC(C)CCNC(=O)c1ccccc1Nc1ccc(C(=O)N=C2NCCN2)cc1C1CC1 [Compound 62, 3-cyclopropyl-N-[(2E)-imidazolidin-2-ylidene]-4-({2-[(3-methylbutyl)carbamoyl]phenyl}amino)benzamide]",641 nM
8,"CC(C)C(=O)Nc1cccc(Nc2ccc(C(=O)N=C3NCCN3)cc2C2CCOC2)c1 (centres unmarked) [Compound 63, N-[(2E)-imidazolidin-2-ylidene]-4-{[3-(2-methylpropanamido)phenyl]amino}-3-(oxolan-3-yl)benzamide]",727 nM
9,"Cc1c(Nc2ccc(C(=O)N=C3NCCN3)cc2C2CC2)cccc1C(=O)NC1(C#N)CC1 [Compound 64, 4-({3-[(1-cyanocyclopropyl)carbamoyl]-2-methylphenyl}amino)-3-cyclopropyl-N-[(2Z)-imidazolidin-2-ylidene]benzamide]",950 nM
10,"CC(C)NC(=O)c1cccc(Nc2ccc(C(=O)N=C3NCCN3)cc2C2CCOCC2)c1 [Compound 69, N-[(2Z)-imidazolidin-2-ylidene]-3-(oxan-4-yl)-4-({3-[(propan-2-yl)carbamoyl]phenyl}amino)benzamide]",1130 nM
11,"CC(C)NC(=O)c1ccccc1Nc1ccc(C(=O)N=C2NCCN2)cc1C1CC1 [Compound 70, 3-cyclopropyl-N-[(2E)-imidazolidin-2-ylidene]-4-({2-[(propan-2-yl)carbamoyl]phenyl}amino)benzamide]",1150 nM
12,"CC(C)NC(=O)c1cccc(Nc2ccc(C(=O)N=C3N(C)CCN3C)cc2C(C)(C)C)c1 [Compound 71, 3-tert-butyl-N-[(2Z)-1,3-dimethylimidazolidin-2-ylidene]-4-({3-[(propan-2-yl)carbamoyl]phenyl}amino)benzamide]",1170 nM
13,"CC(C)C(=O)Nc1cccc(Nc2ccc(C(=O)N=C3NCCN3)cc2Cl)c1 [Compound 72, 3-chloro-N-[(2E)-imidazolidin-2-ylidene]-4-{[3-(2-methylpropanamido)phenyl]amino}benzamide]",1230 nM
14,"O=C(N=C1NCCN1)c1ccc(Nc2cc(F)cc(C(=O)N3CCOCC3)c2)c(C2CC2)c1 [Compound 73, 3-cyclopropyl-4-{[3-fluoro-5-(morpholine-4-carbonyl)phenyl]amino}-N-[(2Z)-imidazolidin-2-ylidene]benzamide]",1290 nM
15,"CC(C)(C)c1cc(C(=O)N=C2NCCN2)ccc1Nc1cc(C(=O)NCCC2CCOCC2)ccn1 [Compound 74, 2-[(2-tert-butyl-4-{[(2E)-imidazolidin-2-ylidene]carbamoyl}phenyl)amino]-N-[2-(oxan-4-yl)ethyl]pyridine-4-carboxamide]",1310 nM
16,"CC(C)NC(=O)c1cccc(Nc2c(F)cc(C(=O)N=C3NCCN3)cc2C2CC2)c1 [Compound 91, 3-cyclopropyl-5-fluoro-N-[(2Z)-imidazolidin-2-ylidene]-4-({3-[(propan-2-yl)carbamoyl]phenyl}amino)benzamide]",2 nM
17,"CC(C)NC(=O)c1cccc(Nc2ccc(C(=O)N=C3NCCN3)cc2C2CC2)c1-c1ccoc1 [Compound 92, 3-[(2-cyclopropyl-4-{[(2Z)-imidazolidin-2-ylidene]carbamoyl}phenyl)amino]-2-(furan-3-yl)-N-(propan-2-yl)benzamide]",277 nM
18,"O=C(N=C1NCCN1)c1ccc(Nc2cccc(C(=O)NC3CCS(=O)(=O)CC3)c2Cl)c(C2CC2)c1 [Compound 94, 4-({2-chloro-3-[(1,1-dioxo-1λ^6-thian-4-yl)carbamoyl]phenyl}amino)-3-cyclopropyl-N-[(2E)-imidazolidin-2-ylidene]benzamide]",240 nM
19,"O=C(N=C1NCCN1)c1ccc(Nc2cccc(C(=O)NC3CCOC3)c2)c(C2CCCC2)c1 (centres unmarked) [Compound 95, 3-cyclopentyl-N-[(2Z)-imidazolidin-2-ylidene]-4-({3-[(oxolan-3-yl)carbamoyl]phenyl}amino)benzamide]",95.9 nM
20,"O=C(N=C1NCCN1)c1ccc(Nc2cccc(C(=O)NC3CCOCC3)c2)c(C2CCCC2)c1 [Compound 96, 3-cyclopentyl-N-[(2Z)-imidazolidin-2-ylidene]-4-({3-[(oxan-4-yl)carbamoyl]phenyl}amino)benzamide]",839 nM
21,"O=C(N=C1NCCN1)c1ccc(Nc2cccc(C(=O)N3CCOCC3)c2Cl)c(C2CCCO2)c1 (centres unmarked) [Compound 97, 4-{[2-chloro-3-(morpholine-4-carbonyl)phenyl]amino}-N-[(2E)-imidazolidin-2-ylidene]-3-(oxolan-2-yl)benzamide]",51 nM
22,"CC(C)NC(=O)c1cccc(Nc2ccc(C(=O)N=C3NCCN3)cc2C2CC2)c1F [Compound 98, 3-cyclopropyl-4-({2-fluoro-3-[(propan-2-yl)carbamoyl]phenyl}amino)-N-[(2Z)-imidazolidin-2-ylidene]benzamide]",228 nM
23,"CC1(NC(=O)c2nccc(Nc3c(F)cc(C(=O)N=C4NCCN4)cc3C3CC3)c2F)CC1 [Compound 99, 4-[(2-cyclopropyl-6-fluoro-4-{[(2Z)-imidazolidin-2-ylidene]carbamoyl}phenyl)amino]-3-fluoro-N-(1-methylcyclopropyl)pyridine-2-carboxamide]",35.3 nM
24,"CC(C)CCC(=O)Nc1ccccc1Oc1ccc(C(=O)N=C2NCCN2)cc1C1CC1 [Compound 100, 3-cyclopropyl-N-[(2E)-imidazolidin-2-ylidene]-4-[2-(4-methylpentanamido)phenoxy]benzamide]",458 nM
25,"CC1(NC(=O)c2cccc(Nc3ccc(C(=O)N=C4NCCN4)cc3S(C)(=O)=O)c2Cl)CC1 [Compound 102, 2-chloro-3-[(4-{[(2Z)-imidazolidin-2-ylidene]carbamoyl}-2-methanesulfonylphenyl)amino]-N-(1-methylcyclopropyl)benzamide]",819 nM
26,"O=C(N=C1NCCN1)c1ccc(Nc2cccc(C(=O)N3CCS(=O)(=O)CC3)c2Cl)c(C2CC2)c1 [Compound 103, 4-{[2-chloro-3-(1,1-dioxo-1)^6-thiomorpholine-4-carbonyl)phenyl]amino}-3-cyclopropyl-N-[(2E)-imidazolidin-2-ylidene]benzamide]",19.4 nM
27,"CC(C)C1COCCN1C(=O)c1cccc(Nc2ccc(C(=O)N=C3NCCN3)cc2C2CC2)c1Cl (centres unmarked) [Compound 104, 4-({2-chloro-3-[3-(propan-2-yl)morpholine-4-carbonyl]phenyl}amino)-3-cyclopropyl-N-[(2Z)-imidazolidin-2-ylidene]benzamide]",12.4 nM
28,"CC(C)C1CN(C(=O)c2cccc(Nc3ccc(C(=O)N=C4NCCN4)cc3C3CC3)c2Cl)CCO1 (centres unmarked) [Compound 105, 4-({2-chloro-3-[2-(propan-2-yl)morpholine-4-carbonyl]phenyl}amino)-3-cyclopropyl-N-[(2Z)-imidazolidin-2-ylidene]benzamide]",3.2 nM
29,"Cc1cc(C(=O)N=C2NCCN2)cc(C2CC2)c1Nc1cccc(C(=O)NC(C)C)c1 [Compound 106, 3-cyclopropyl-N-[(2Z)-imidazolidin-2-ylidene]-5-methyl-4-({3-[(propan-2-yl)carbamoyl]phenyl}amino)benzamide]",5.7 nM
